The values below come from patent US7419984B2, “Pyrimidines and uses thereof” (Cell Therapeutics, Inc., priority 2002, dated 2008).

The target in this test is T1, human LPAAT-β (Homo sapiens, UniProt O15120).
T1 construct: the full-length human LPAAT-β cDNA was amplified by PCR; poly-histidine tag (N); made in house; host or cells: Sf9 insect cells (baculovirus, pFastBac HTc); the membrane fraction was used as the enzyme
T1 sequence (O15120 24-278): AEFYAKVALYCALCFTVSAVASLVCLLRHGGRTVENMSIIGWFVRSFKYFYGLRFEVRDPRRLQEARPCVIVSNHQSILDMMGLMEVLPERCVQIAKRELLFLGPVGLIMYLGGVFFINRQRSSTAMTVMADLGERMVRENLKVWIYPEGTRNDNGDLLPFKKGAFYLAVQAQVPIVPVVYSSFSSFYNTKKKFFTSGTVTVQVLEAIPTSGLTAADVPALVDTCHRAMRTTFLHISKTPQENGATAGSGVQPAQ
Nature of the test: LPAAT-β cell-free assay. The class given is biochemical. The note with it: Sf9 cell membrane overexpressing recombinant LPAAT-β. The source says: For the construction of Baculovirus expression vectors, the full-length human LPAAT-β cDNA was amplified by PCR from the DNA template pCE9.LPAAT-β (West et al., DNA Cell Bid. 16.691-701 (1997)) using the primers 5′-[…] […] […] […]-3′ (olpb1F; SEQ ID NO:1) and 5′-[…] […] […]-3′ (olpb1R; SEQ ID NO:2). The ˜870 bp fragment generated was reamplified by PCR using the primers 5′ […] […] […] […] ATC-3′ (olpb2F; SEQ ID NO:3) and 5′-[…] […] […]-3′ (olpb1R; SEQ ID NO:2). The ˜890 bp fragment generated was then cleaved with Sal I and Xba I for insertion into pFastBac™ HTc vector (Life Technologies, Gaithersberg, M.d.) between the Sal I and Xba I sites for the generation of the plasmid pFB.LPAAT-β. This plasmid was then transformed into E. coli DH10Bac™ (Life Technologies, Gaithersberg, M.d.) for the generation of recombinant Bacmid DNA for transfection in HighFive (Invitrogen, San Diego, Calif.) or SF9 insect cells for the production of recombinant Baculovirus stocks using the protocol described in the Bac-to-Bac® Baculovirus Expression System (Life Technologies, Gaithersberg, M.d.), a eukaryotic expression system for generating recombinant baculovirus through site-specific transposition in E. coli. Viral stocks harvested from the transfected cells can then be used to infect fresh insect cells for the subsequence expression of LPAAT-β fusion protein with a poly-histidine tag and a myc-epitope near its N-terminus. The membrane fraction from these Sf9 cells would be the source of LPAAT enzyme.
For the preparation of membranes from Sf9 Cells, all steps are performed on ice or at 4° C. Sf9 cell pellets (˜10^8 cells) were thawed and resuspended in 1-2 ml of buffer A (20 mM Hepes, pH 7.5, 1 mM DTT, 1 mM EDTA, 20% w/v glycerol, 1 mM Benzamidine, 1 μg/ml soybean trypsin inhibitor (SBTI), 1 μug/ml pepstatin A) w/o DTT but with 1 mM Pefabloc. The cells were lysed by sonication using a Branson Sonifier at output=2, duty cycle=2, 10 pulses each at 10 s. with the tip of small sonicator probe submerged but not touching the walls. DTT was then added to 1 mM from a 1 M stock. The samples were centrifuged at 1500 rpm for 5 min. The low speed supernatant was saved and centrifuged (TLA 100.3 rotor, polycarbonate tubes, 2 ml/tube or 1.5 ml/tube minimum) at 100000×g for 1 hr. The high speed pellet was resuspend in Buffer A with a probe sonicator (10 pulses @ output #2 and duty cycle 20%) as a source of LPAAT enzyme.
LPAAT-β catalyzes the transfer of an acyl group from a donor such as acyl-CoA to LPA. The transfer of the acyl group from acyl-CoA to LPA leads to the release of free CoA, which can be reacted with the thiol reagent, 5,5′-dithiobis(2-nitrobenzoic acid) (DTNB). The reaction between DTNB and the free sulfhydryl group from CoA generates a yellow-colored product, 3-carboxylato-4-nitrothiophenolate (CNP), that absorbs at 413 nm. LPAAT-β derived from Sf9 cell membrane overexpressing LPAAT-β were resuspended in HEPES saline buffer (20 mM HEPES pH 7.5, 150 mM NaCl), 1 mg/ml BSA and 72 μl aliquots were distributed into 96-well microtiter plates. 8 μl of compound of interest at 200 μM dissolved in 100% DMSO was added into each well. […] of 1 mM 18:1-CoA and 1 mM sn-1-18:1 lysoPA was then added to each well to initiate the reaction and allowed to run at room temperature for 25 min. 100 μl of 1 mM DTNB in 100% ethanol was then added to each well to quench the reaction and for color development. The absorbance at 405 nm, measured using a spectrophotometer plate reader, is proportional to the activity of LPAAT-2 in the sample. This colorimetric assay was used for the high throughput screening of LPAAT inhibitors.
The radiometric assay was carried out in Sf9 cell membrane overexpressing LPAAT-β resuspended in HEPES-saline buffer, pH 7.5, 1 mg/ml BSA, 1 mM EDTA and 200 μM [^14C]18:1-CoA and 200 μM sn-1-18:1 lysoPA.

Turning to `CCOc1ccc(Cl)cc1-c1cc(Nc2ccc(Cl)cc2)nc(N)n1` [Example 55, 6-(5-Chloro-2-ethoxy-phenyl)-N*4*-(4-chloro-phenyl)-pyrimidine-2,4-diamine], the IC50 turned out to be 17 nM.

For `CC(C)Oc1ccc(Br)cc1-c1cc(Nc2ccc(Cl)cc2)nc(N)n1` [Example 136, 6-(5-Bromo-2-isopropoxy-phenyl)-N*4*-(4-chloro-phenyl)-pyrimidine-2,4-diamine], the IC50 turned out to be 170 nM.

For `CCOc1ccc(Cl)cc1-c1cc(Nc2ccc(S(N)(=O)=O)cc2)nc(N)n1` [Example 96, 4-[2-Amino-6-(5-chloro-2-ethoxy-phenyl)-pyrimidin-4-ylamino]-benzenesulfonamide], the concentration for half-maximal inhibition (IC50) was 73 nM.

Regarding `CCOc1ccc(Cl)cc1-c1cc(N(C)c2ccc(Cl)cc2)nc(N)n1` [Example 122, 6-(5-chloro-2-ethoxyphenyl)-N*4*-(4-chlorophenyl)-N*4*-methylpyrimidine-2,4-diamine], the IC50 came out at 1200 nM.

Consider `CCOc1ccc(Br)cc1-c1cc(Nc2ccc(C(F)(F)F)cc2)ncn1` [Example 180, [6-(5-Bromo-2-ethoxy-phenyl)-pyrimidin-4-yl]-(4-trifluoromethyl-phenyl)-amine], for which the half-inhibitory concentration (IC50) came out at 160 nM.

With `CNC(=O)c1cc(Nc2cc(-c3cc(Br)ccc3C)nc(N)n2)ccc1Br` [Example 78, 5-[2-Amino-6-(5-bromo-2-methyl-phenyl)-pyrimidin-4-ylamino]-2-bromo-N-methyl-benzamide], the IC50 was 210 nM.

On to `Cc1ccc(Cl)cc1-c1cc(Nc2ccc(Cl)c(CO)c2)nc(N)n1` [Example 113, {5-[2-Amino-6-(5-chloro-2-methyl-phenyl)-pyrimidin-4-ylamino]-2-chloro-phenyl}-methanol], for which the concentration for half-maximal inhibition (IC50) stood at 190 nM.

As for `CCOc1ccc(Cl)cc1-c1cc(Nc2ccc(CO)cc2)nc(NC)n1` [Example 65, {4-[6-(5-Chloro-2-ethoxy-phenyl)-2-methylamino-pyrimidin4-ylamino]-phenyl}-methanol], the IC50 stood at 140 nM.

In the case of `Nc1nc(Nc2ccc3c(c2)OCO3)cc(-c2cc(Cl)ccc2Cl)n1` [Example 23, N*4*-Benzo[1,3]dioxol-5-yl-6-(2,5-dichloro-phenyl)-pyrimidine-2,4-diamine], the half-maximal inhibitory concentration (IC50) worked out at 95 nM.

Regarding `CCOc1ccc(Cl)cc1-c1cc(Nc2ccc(CC(C)(C)O)cc2)nc(N)n1` [Example 120, 1-{4-[2-amino-6-(5-chloro-2-ethoxyphenyl)pyrimidin-4-ylamino]phenyl}-2-methyl-propan-2-ol], the IC50 worked out at 180 nM.

With `Cc1ccc(Cl)cc1-c1cc(Nc2ccc3[nH]nnc3c2)nc(N)n1` [Example 125, N*4*-(1H-Benzotriazol-5-yl)-6-(5-chloro-2-methylphenyl)pyrimidine-2,4-diamine], the half-inhibitory concentration (IC50) was found to be 90 nM.

On to `COc1ccc(Cl)cc1-c1cc(Nc2ccc(Cl)cc2)nc(N)n1` [Example 2, 6-(5-Chloro-2-methoxy-phenyl)-N*4*-(4-chloro-phenyl)-pyrimidine-2,4-diamine], for which the IC50 came out at 54 nM.

Regarding `Nc1nc(Nc2ccc3cn[nH]c3c2)cc(-c2cc(Cl)ccc2Cl)n1` [Example 19, 6-(2,5-Dichloro-phenyl)-N*4*-(1H-indazol-6-yl)-pyrimidine-2,4-diamine], the IC50 was 27 nM.

As for `Nc1nc(Nc2ccc(Br)cc2)cc(-c2cc(Cl)cc(Cl)c2Cl)n1` [Example 99, N*4*-(4-Bromo-phenyl)-6-(2,3,5-trichloro-phenyl)-pyrimidine-2,4-diamine], the half-inhibitory concentration (IC50) came to 130 nM.

Consider `Cc1ccc(Cl)cc1-c1cc(Nc2ccc(Cl)cc2)nc(N)n1` [Example 27, 6-(5-Chloro-2-methyl-phenyl)-N*4*-(4-chloro-phenyl)-pyrimidine-2,4-diamine], for which the 50% inhibitory concentration (IC50) worked out at 28 nM.

Regarding `CCOc1ccc(Br)cc1-c1cc(Nc2ccc(C(F)(F)F)cc2)nc(N)n1` [Example 60, 6-(5-Bromo-2-ethoxy-phenyl)-N*4*-(4-trifuoromethyl-phenyl)-pyrimidin-2,4-diamine], the IC50 was determined as 60 nM.
